Data published in article PMC10660337, “Mutate and Conjugate: A Method to Enable Rapid In-Cell Target Validation” (ACS Chemical Biology, 2023).
Where “and” joins values, the source holds several entries; their conditions need not be identical. Equal entries are not always repeated.

Legend:
Format in all cases: binding
[1] = biological target: T1, BRD4(1)^WT (Homo sapiens, UniProt O60885); experiment: Protein LCMS labeling assay 1; conditions: for Covalent labeling of purified BRD4(1)^WT detected using LCMS: after 20 h incubation; for Labeled Protein (%) WT 4 h: 50 μM compound, 10 µM protein, 37 °C, mean of three ± s.e.m., ND = not detectable
T1 construct: Characterization of His6-BRD4(1)WT; made in house; host or cells: E. coli BL21 (DE3)
Procedure: Before introducing a Cys mutant into the first bromodomain of BRD4 [BRD4(1)], we wanted to rule out the possibility that the native Cys residues C125 and C136 (Figures 2A and S1), would react with electrophilic fragments. To test this, we incubated two KAc-mimicking methylisoxazole-based reactive fragments (1 and 2, Figure 2C) with purified BRD4(1)^WT.
(§1) The resulting library of 22 fragments was screened for BRD4(1)^L94C binding at a concentration of 50 μM using a protein LCMS assay (referred to as “labeling assay 1”). […] To assess the selectivity of the fragments for the labeling of C94, hits were also screened against BRD4(1)^WT under the same conditions. […] The acrylamide-based fragment, 12, labeled 98% of BRD4(1)^L94C after 4 h. While 95% of the protein was labeled once, 3% of the protein was labeled twice (Figure 5D). […] Fragment 14, designed by appending a β-dimethylaminomethyl acrylamide to the structure of 12, led to 74% of singly labeled BRD4(1)^L94C after 4 h with no labeling of BRD4(1)^WT observed (Table 1 and Figure 5E). […] However, only 9.9% of labeled BRD4(1)^L94C was observed, substantially lower than the 56% labeling observed for the corresponding 3-methyl regioisomer 10 (Table 1). […]
(§2) Assays were performed in 1.5 mL Eppendorf tubes at 37 °C and gently shaken, unless otherwise stated.
(§3) Experiments were performed in a protein LCMS assay buffer, with 10 µM protein, and 50 µM of the desired compound with a final DMSO concentration of 0.5% (Table S16). Time points were taken at 0, 1 and 4 h, unless otherwise stated, where a 20 µL sample of the reaction mix was taken, diluted with 100 µL Milli-Q water, and flash frozen. Samples were thawed immediately prior to LCMS analysis on a Waters Xevo G2-S system (Waters) fitted with a ProSwift™ RP-2H PSDVB Reversed Phase HPLC Column (Thermofisher). Data was analysed and processed using MassLynx. The total ion chromatograms (TIC) were extracted (region containing protein) and the summed scans were deconvoluted (using MaxEnt). Covalent labeling was calculated using intensities of the unlabeled and labeled protein (Equation 1). Figures were made using GraphPad Prism 7.0.
(§4) Table S16. Buffer composition for protein LCMS.
(§5) Buffer Reagent Composition Amount per 1 L
(§6) Protein LCMS Assay Buffer HEPES 25 mM 6.0 g
(§7) Protein Labelling = Intensity of Labelled Peak × 100

[2] = biological target: T2, BRD4(1)^L94C (Homo sapiens, UniProt O60885, L94C); experiment: Protein LCMS labeling assay 1; conditions: 50 μM compound, 10 µM protein, 37 °C, mean of three ± s.e.m., ND = not detectable
T2 construct: Characterization of His6-BRD4(1)L94C; made in house; host or cells: E. coli BL21 (DE3)
Procedure: as §1, §2, §3, §4, §5, §6, §7

[3] = biological target: T2, BRD4(1)^L94C; experiment: Fluorescent labeling of purified protein (CuAAC with TAMRA-PEG3-azide, in-gel fluorescence); conditions: 50 μM probe, 10 μM protein, 4 h, 37 °C, then CuAAC 1 h
Procedure: When 28, 29, 30, and 42 were incubated with either purified BRD4(1)^L94C or BRD4(1)^WT and subjected to a copper(I)-catalyzed alkyne–azide click reaction (CuAAC) reaction with the fluorescent TAMRA-PEG3-azide dye, all clickable probes labeled the mutant protein and could be visualized using fluorescence imaging of a gel (Figure 6).
Figure 6 Clickable probes 28, 29, 30, and 42 covalently label BRD4(1)^L94C and undergo a subsequent CuAAC reaction with TAMRA-PEG3 azide to fluorescently label the protein, as shown by in-gel fluorescence imaging. Compounds 28, 29, 30, 41, and 42 (50 μM) were incubated with purified BRD4(1)^L94C or BRD4(1)^WT (10 μM) for 4 h at 37 °C, followed by CuAAC reaction with TAMRA-PEG3 azide for 1 h and separation of components by SDS-PAGE. For all compounds other than 30, only labeling of BRD4(1)^L94C was observed. […]
Fluorescent labeling of purified proteins
Assays were performed in 1.5 mL Eppendorf tubes at 37 °C, and gently shaken, unless otherwise stated.
The desired click probe (50 µM) was incubated with protein (10 µM) in protein LCMS buffer for 4 h, after which TAMRA-PEG3-Azide (200 µM), TCEP·HCl (1 mM), TBTA (100 µM), and CuSO4 (1 mM) were added and incubated for a further 1 h at room temperature in the dark. A 25 µL sample of the […]
reaction mix was taken and 8 µL of Lamelli buffer added, and the samples denatured by heating at 95 °C for 10 min. Samples were separated by gel electrophoresis on NuPAGE™ 4–12%, Bis-Tris precast polyacrylamide gels (Thermofisher). Following electrophoresis, gels were stained for 15 min with InstantBlueTM Coomasie® stain (Abcam), destained, and imaged using Bio-rad molecular imager.
Bio-rad Image Lab 6.1 was used to process the data. […]
InstantBlueTM Coomasie® stain (Abcam), destained, and imaged using Bio-rad molecular imager. […]
MEM media. Cells were then harvested and lysed using the previously described protocol above. […]

## Cc1cc(CCl)on1 [Compound 1]
[1]
  Covalent labeling of purified BRD4(1)^WT detected using LCMS: no covalent labeling

## Cc1cc(CCl)no1 [Compound 2]
[1]
  Covalent labeling of purified BRD4(1)^WT detected using LCMS: no covalent labeling

## C=CC(=O)c1cc(C)no1 [Compound 4]
[2]
  Labeled Protein (%) L94C 1 h: 100 ± 0.0%
  Labeled Protein (%) L94C 4 h: 100 ± 0.0%
[1]
  Labeled Protein (%) WT 4 h: 83 ± 1.2%

## C=CC(=O)c1cc(C)on1 [Compound 5]
[2]
  Labeled Protein (%) L94C 1 h: 100.0 ± 0.0%
  Labeled Protein (%) L94C 4 h: 100.0 ± 0.0%
[1]
  Labeled Protein (%) WT 4 h: 86 ± 7.4%

## C=CC(=O)c1onc(C)c1-c1ccccc1 [Compound 6]
[2]
  Labeled Protein (%) L94C 1 h: 100 ± 0.0%
  Labeled Protein (%) L94C 4 h: 100 ± 0.0%

## C#CC(=O)c1cc(C)no1 [Compound 8]
[2]
  Labeled Protein (%) L94C 1 h: 44 ± 0.6%
  Labeled Protein (%) L94C 4 h: 42 ± 1.4%
[1]
  Labeled Protein (%) WT 4 h: 29 ± 0.8%

## C#CC(=O)c1cc(C)on1 [Compound 9]
[2]
  Labeled Protein (%) L94C 1 h: 60 ± 0.7%
  Labeled Protein (%) L94C 4 h: 58 ± 1.9%
[1]
  Labeled Protein (%) WT 4 h: 22 ± 1.4%

## C=CC(=O)Nc1cc(C)no1 [Compound 10]
[2]
  Labeled Protein (%) L94C 1 h: 21 ± 1.8%
  Labeled Protein (%) L94C 4 h: 56% and 56 ± 0.9%

## C=CC(=O)Nc1cc(C)on1 [Compound 11]
[2]
  Labeled Protein (%) L94C 1 h: 7.6 ± 0.4%
  Labeled Protein (%) L94C 4 h: 9.9% and 9.9 ± 0.4%

## Cc1cc(NC(=O)/C=C/CN(C)C)on1 [Compound 13]
[2]
  Labeled Protein (%) L94C 1 h: 16 ± 0.7%
  Labeled Protein (%) L94C 4 h: 52% and 52 ± 0.9%

## C#CC(=O)Nc1cc(C)no1 [Compound 19]
[2]
  Labeled Protein (%) L94C 1 h: 3.4 ± 0.2%
  Labeled Protein (%) L94C 4 h: 15 ± 1.3%

## CC#CC(=O)Nc1cc(C)no1 [Compound 20]
[2]
  Labeled Protein (%) L94C 4 h: 7.8 ± 0.2%

## Cc1cc(NC(=O)CCl)on1 [Compound 21]
[2]
  Labeled Protein (%) L94C 1 h: 10 ± 0.7%
  Labeled Protein (%) L94C 4 h: 32 ± 0.9%

## Cc1noc(NC(=O)CCl)c1-c1ccccc1 [Compound 22]
[2]
  Labeled Protein (%) L94C 1 h: 5.9 ± 0.3%
  Labeled Protein (%) L94C 4 h: 22 ± 0.4%

## C#Cc1ccc(-c2c(C)noc2NC(=O)/C=C/CN(C)C)cc1 [Compound 28]
[2]
  Labeled Protein (%) L94C 1 h: 59 ± 1.9%
[3]
  Labeling of purified BRD4(1)^L94C, in-gel fluorescence: high levels

## C#CCOc1ccc(-c2c(C)noc2NC(=O)/C=C/CN(C)C)cc1 [Compound 29]
[2]
  Labeled Protein (%) L94C 1 h: 49 ± 2.0%
[3]
  Labeling of purified BRD4(1)^L94C, in-gel fluorescence: high levels
